What was measured:
[1] = biological target: T1, NADPH oxidase 4 (Homo sapiens) (UniProt Q9NPH5); test: (§1) Inhibition of NOX4 in human ARPE19 cells assessed as suppression of 4-HNE-induced superoxide production at 10 uM pre-incubated for 1 hr before 4-HNE addition for 1 hr by lucigenin chemiluminescence assay; format: cell-based
T1 sequence (whole entry): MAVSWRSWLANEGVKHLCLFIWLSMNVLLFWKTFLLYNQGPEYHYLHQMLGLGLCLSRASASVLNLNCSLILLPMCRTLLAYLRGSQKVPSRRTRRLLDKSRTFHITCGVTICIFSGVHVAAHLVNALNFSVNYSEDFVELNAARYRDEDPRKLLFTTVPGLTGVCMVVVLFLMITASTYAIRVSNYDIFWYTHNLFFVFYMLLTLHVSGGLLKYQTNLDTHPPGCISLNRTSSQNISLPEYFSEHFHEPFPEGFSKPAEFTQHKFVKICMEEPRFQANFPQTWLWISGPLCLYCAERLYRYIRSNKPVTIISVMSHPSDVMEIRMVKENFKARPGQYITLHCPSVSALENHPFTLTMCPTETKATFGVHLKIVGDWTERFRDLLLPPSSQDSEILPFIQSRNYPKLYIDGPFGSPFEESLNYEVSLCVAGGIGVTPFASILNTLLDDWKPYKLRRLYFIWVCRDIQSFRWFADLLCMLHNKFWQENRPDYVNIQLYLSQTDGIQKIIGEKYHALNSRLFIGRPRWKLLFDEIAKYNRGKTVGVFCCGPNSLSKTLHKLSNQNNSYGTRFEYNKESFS

[2] = Antioxidant activity assessed as DPPH radical scavenging activity at 10 uM by spectrphotomery; format: functional
[3] = biological target: T1, NADPH oxidase 4 (Homo sapiens); test: (§2) Inhibition of NOX4 in human ARPE19 cells assessed as protection against 4-HNE-induced cell death by measuring cell viability recovery at 10 uM incubated for 24 hrs by MTT assay; format: cell-based
[4] = biological target: NADPH oxidase 4 (Homo sapiens) (UniProt Q9NPH5); test: as §1; format: cell-based; remark: listed apart in the source
[5] = biological target: NADPH oxidase 4 (Homo sapiens) (UniProt Q9NPH5); test: as §2; format: cell-based; remark: listed apart in the source
ARPE-19 [6] = test: Suppression of 4-HNE-induced apoptosis in human ARPE19 cells assessed as necrosis cells level at 5 uM incubated for 24 hrs by FITC Annexin V and propidium iodide staining based flow cytometry (reference value: 0.342%); format: functional
ARPE-19 [7] = test: Suppression of 4-HNE-induced apoptosis in human ARPE19 cells assessed as necrosis cells level at 20 uM incubated for 24 hrs by FITC Annexin V and propidium iodide staining based flow cytometry (reference value: 0.342%); format: functional
ARPE-19 [8] = test: Suppression of 4-HNE-induced apoptosis in human ARPE19 cells assessed as early apoptosis cells level at 20 uM incubated for 24 hrs by FITC Annexin V and propidium iodide staining based flow cytometry (reference value: 17.6%); format: functional
ARPE-19 [9] = test: Suppression of 4-HNE-induced apoptosis in human ARPE19 cells assessed as early apoptosis cells level at 5 uM incubated for 24 hrs by FITC Annexin V and propidium iodide staining based flow cytometry (reference value: 17.6%); format: functional
ARPE-19 [10] = test: Suppression of 4-HNE-induced apoptosis in human ARPE19 cells assessed as late apoptosis cells level at 20 uM incubated for 24 hrs by FITC Annexin V and propidium iodide staining based flow cytometry (reference value: 23%); format: functional
ARPE-19 [11] = test: Suppression of 4-HNE-induced apoptosis in human ARPE19 cells assessed as necrosis cells level at 10 uM incubated for 24 hrs by FITC Annexin V and propidium iodide staining based flow cytometry (reference value: 0.342%); format: functional
ARPE-19 [12] = test: Suppression of 4-HNE-induced apoptosis in human ARPE19 cells assessed as late apoptosis cells level at 10 uM incubated for 24 hrs by FITC Annexin V and propidium iodide staining based flow cytometry (reference value: 23%); format: functional
ARPE-19 [13] = test: Suppression of 4-HNE-induced apoptosis in human ARPE19 cells assessed as viable cells level at 20 uM incubated for 24 hrs by FITC Annexin V and propidium iodide staining based flow cytometry (reference value: 59.1%); format: functional
ARPE-19 [14] = test: Suppression of 4-HNE-induced apoptosis in human ARPE19 cells assessed as viable cells level at 10 uM incubated for 24 hrs by FITC Annexin V and propidium iodide staining based flow cytometry (reference value: 59.1%); format: functional
ARPE-19 [15] = test: Suppression of 4-HNE-induced apoptosis in human ARPE19 cells assessed as viable cells level at 5 uM incubated for 24 hrs by FITC Annexin V and propidium iodide staining based flow cytometry (reference value: 59.1%); format: functional
ARPE-19 [16] = test: Suppression of 4-HNE-induced apoptosis in human ARPE19 cells assessed as early apoptosis cells level at 10 uM incubated for 24 hrs by FITC Annexin V and propidium iodide staining based flow cytometry (reference value: 17.6%); format: functional
ARPE-19 [17] = test: Suppression of 4-HNE-induced apoptosis in human ARPE19 cells assessed as late apoptosis cells level at 5 uM incubated for 24 hrs by FITC Annexin V and propidium iodide staining based flow cytometry (reference value: 23%); format: functional
[18] = biological target: T1, NADPH oxidase 4 (Homo sapiens); test: Inhibition of NOX4 in human ARPE19 cells assessed as protection against 4-HNE-induced cell death by measuring cell viability recovery incubated for 24 hrs by MTT assay; format: cell-based

| inhibition [1] [%] | Compound | Activity [2] [%] | Activity [3] [%] | further results |
| --- | --- | --- | --- | --- |
| 20.1 | Cc1nc(NC(=S)Nc2cccc(C(F)(F)F)c2)c(C)c(C)c1O | 7.6 | 29.6 |  |
|  | VITAMIN E | 10.2 |  | inhibition [4]: 3.9%; Activity [5]: 9.8% |
| 7.1 | Cc1nc(NC(=O)Nc2ccccc2)c(C)c(C)c1O | 5.8 | 8.9 |  |
| 17.9 | CCCCCCNC(=S)Nc1nc(C)c(O)c(C)c1C | 16.5 | 22.8 |  |
| 9.4 | CCCNC(=O)Nc1nc(C)c(O)c(C)c1C | 5.5 | 12.5 |  |
| -1.3 | Cc1nc(NC(=O)Nc2ccc(C(C)C)cc2)c(C)c(C)c1O | 4.2 | -5.1 |  |
| 30.8 | Cc1nc(NC(=O)Nc2ccc(Cl)cc2)c(C)c(C)c1O | 6.2 | 43.6 |  |
| 30.5 | Cc1nc(NC(=S)Nc2ccc(C(F)(F)F)cc2)c(C)c(C)c1O | 6.7 | 40.4 |  |
| 71.8 | Cc1nc(NC(=S)Nc2ccc([N+](=O)[O-])cc2)c(C)c(C)c1O | 5.5 | 77.7 | inhibition [18]: Dose-dependent effect |
| 51.1 | Cc1nc(NC(=O)Nc2ccc(OC(F)(F)F)cc2)c(C)c(C)c1O | 6.1 | 58.4 |  |
| 41.3 | Cc1ccc(NC(=S)Nc2nc(C)c(O)c(C)c2C)cc1 | 6.9 | 54 |  |
| 40.7 | CCCCCCCCNC(=S)Nc1nc(C)c(O)c(C)c1C | 14.6 | 45.9 |  |
| 8.9 | Cc1cccc(C(C)(C)C)c1NC(=O)Nc1nc(C)c(O)c(C)c1C | 3.3 | 12.8 |  |
| 5.8 | COc1ccc(NC(=O)Nc2nc(C)c(O)c(C)c2C)cc1 | 7.4 | 10.8 |  |
| 6.9 | Cc1nc(NC(=O)Nc2ccc(F)cc2)c(C)c(C)c1O | 7.4 | 6.2 |  |
| 68.7 | Cc1nc(NC(=S)NC(=O)c2ccccc2)c(C)c(C)c1O | 4.9 | 63.1 |  |
| 2.4 | Cc1nc(NC(=O)Nc2cccc3ccccc23)c(C)c(C)c1O | 6.3 | 7.3 |  |

| inhibition [1] [%] | Compound | Activity [2] [%] | Activity [3] [%] | further results |
| --- | --- | --- | --- | --- |
| 36.7 | CCNC(=S)Nc1nc(C)c(O)c(C)c1C | 13.3 | 44.9 |  |
| 3.4 | O=C1O[C@H]([C@@H](O)CO)C(O)=C1O | 10.2 | 8.2 |  |
| 28.6 | Cc1ccc(S(=O)(=O)NC(=O)Nc2nc(C)c(O)c(C)c2C)cc1 | 5.7 | 32.5 |  |
| 13.9 | Cc1nc(NC(=S)NC(C)C)c(C)c(C)c1O | 5.5 | 14.7 |  |
| 4.6 | Cc1nc(NC(=O)NCc2ccccc2)c(C)c(C)c1O | 6 | 10.5 |  |
| 2.3 | Cc1nc(NC(=S)Nc2ccccc2)c(C)c(C)c1O | 5.6 | 8.9 |  |
| 19 | Cc1nc(NC(=S)Nc2ccc(Cl)c(Cl)c2)c(C)c(C)c1O | 6.6 | 24.9 |  |
| 8.8 | Cc1nc(NC(=O)NC(=O)c2ccccc2)c(C)c(C)c1O | 6.7 | 1.5 |  |
| 6.2 | Cc1ccc(NC(=O)Nc2nc(C)c(O)c(C)c2C)cc1 | 3.4 | 5.3 |  |
| 79.5 | CCCCNC(=S)Nc1nc(C)c(O)c(C)c1C | 5.9 | 85.1 | Activity (ARPE-19 [6]): 0.335%; Activity (ARPE-19 [7]): 0.067%; Activity (ARPE-19 [8]): 0.112%; Activity (ARPE-19 [9]): 6.84%; Activity (ARPE-19 [10]): 0.079%; Activity (ARPE-19 [11]): 0.134%; Activity (ARPE-19 [12]): 3.38%; Activity (ARPE-19 [13]): 99.7%; Activity (ARPE-19 [14]): 93.4%; inhibition [18]: Dose-dependent effect; Activity (ARPE-19 [15]): 88.6%; Activity (ARPE-19 [16]): 3.06%; Activity (ARPE-19 [17]): 4.24% |
| 17.7 | COc1ccc(NC(=S)Nc2nc(C)c(O)c(C)c2C)cc1 | 4.7 | 23.2 |  |
| 22.8 | Cc1nc(NC(=S)Nc2ccc(Br)cc2)c(C)c(C)c1O | 7.4 | 33.5 |  |
| 13 | Cc1nc(NC(=S)Nc2ccc(Cl)cc2)c(C)c(C)c1O | 6.5 | 12.8 |  |
| 61.9 | Cc1nc(NC(=S)NC2CCCCC2)c(C)c(C)c1O | 7.1 | 62.2 |  |
| 0.9 | Cc1nc(NC(=O)Nc2ccc(Br)cc2)c(C)c(C)c1O | 4 | 7.3 |  |
| 8.3 | Cc1nc(NC(=O)Nc2ccc([N+](=O)[O-])cc2)c(C)c(C)c1O | 5.2 | 13.9 |  |
| 41.3 | Cc1nc(NC(=O)Nc2ccc(C(F)(F)F)cc2)c(C)c(C)c1O | 5.9 | 44.2 |  |

| Compound | inhibition [1] [%] | Activity [2] [%] | Activity [3] [%] | further results |
| --- | --- | --- | --- | --- |
| c1ccc(Cn2nnc3c(Sc4nc5ccccc5o4)ncnc32)cc1 | 78.7 | 6.9 | 79.4 | Activity (ARPE-19 [6]): 0.25%; Activity (ARPE-19 [7]): 0.145%; Activity (ARPE-19 [8]): 2.87%; Activity (ARPE-19 [9]): 11.8%; Activity (ARPE-19 [10]): 1.81%; Activity (ARPE-19 [11]): 0.254%; Activity (ARPE-19 [12]): 4.42%; Activity (ARPE-19 [13]): 95.2%; Activity (ARPE-19 [14]): 89.8%; Activity (ARPE-19 [15]): 80.4%; Activity (ARPE-19 [16]): 5.62%; Activity (ARPE-19 [17]): 7.66% |
